Like-named read-outs stand apart in the source and are kept apart here.
Experiments:
[1] = Neutral fraction at pH 7.4 calculated from pKa; type: physicochemical
[2] = for Brain Kin: calculated at brain blood flow […] and rat serum fu; for Extraction (unbound) / Brain vascular extraction (total): calculated at brain blood flow […]; for Extraction (unbound): free drug; for Brain vascular extraction (total): with rat serum fu
[3] = cited from earlier work; for Log Poct: octanol partition coefficient
[4] = cited from earlier work
[5] = rat in vivo measurements; cited from earlier work
[6] = In situ rat brain perfusion (brain uptake Kin, extraction E, BBB PS); conditions: for Log Pc: Pc in cm/s; for Log Po: Po in cm/s; for Log PoS: PoS in mL/s/g; for Pc / Po: S assumed 100 cm^2/g; for PcS: cerebral cortex, S = physiological saline, AB = artificial blood
[7] = rat, in vivo
[8] = rat
[9] = neutral fraction at perfusion fluid pH 7.40, calculated from pKa
[10] = ref Hansch et al. [123], Avdeef [46] or other sources
[11] = intrinsic PS of neutral solute, PoS = PcS/fn, flow 0.1–[…]

Compound	fn (%) [1, 9]	Log Poct [3, 10]	Log Doct pH=7.4 [3, 10]	fu,.p ([4]; rat in vivo measurements)	Brain Vu,br [5]	Log Pc [6]	Log Po [6]	Log PoS [6]	Pc [6]	Po [6]	PoS ([6]; brain vascular intrinsic PoS)	PcS ([6]; flow 0.1–[…])	PoS [6, 11]	further results
CC(O)CO (centres unmarked) [1,2-Propanediol]	100%	−1.04	−1.04	1.00	1.04 mL/g	−4.67	−4.67	−2.67	21.6 ×10⁻⁶ cm/s	21.6 ×10⁻⁶ cm/s	0.00216 mL/s/g	0.0022 mL/s/g	0.00216 mL/s/g	Brain Kin [2]: 0.0112 mL/s/g; Extraction (unbound) [2]: 8.6%; Brain vascular extraction (total) [2]: 8.6%
OCCCO [1,3 Propanediol]	100%	−0.92	−0.92	1.00	1.02 mL/g	−4.29	−4.29	−2.29			0.00516 mL/s/g	0.0052 mL/s/g	0.00516 mL/s/g	Pc [7]: 51.6 ×10⁻⁶ cm/s; Po [7]: 5.16e-05 cm/s
OCCCCO [1,4-Butanediol]														fn (%) ([1]; pH 7.4): 100%; half-life [8]: 1.14 min; Log Pc ([7]; pH 7.4): −3.82; Log PoS ([7]; pH 7.4): −1.82; Pc ([7]; pH 7.4): 151 ×10⁻⁶ cm/s; PcS ([7]; pH 7.4): 0.015 mL/s/g; PoS ([7]; pH 7.4): 0.0151 mL/s/g; Log Po ([7]; pH 7.4): −3.82; Po ([7]; pH 7.4): 0.000151 cm/s; Log Doct pH=7.4 [3]: −0.52; fu,.p ([4]; rat): 1.00
Cn1c(=O)c2c(ncn2C)n(C)c1=O [Caffeine]	100%				1.28 mL/g									half-life ([8]; brain): 0.94 min; Brain Kin [2]: 0.0152 mL/s/g; Extraction (unbound) [2]: 64.7%; Brain vascular extraction (total) [2]: 63.2%
O=C(O)CCCc1ccc(N(CCCl)CCCl)cc1 [Chlorambucil]	0.16%	3.41	0.61	0.01										half-life [8]: 1.23 min; half-life ([8]; plasma): 1.2 min; Brain Equilibration t1/2, Measured ([7]; pH 7.4): 0.75 min; Log Pc ([7]; pH 7.4): −3.54; Log PoS ([7]; pH 7.4): 1.26; Pc ([7]; pH 7.4): 287 ×10⁻⁶ cm/s; PcS ([7]; pH 7.4): 0.029 mL/s/g; PoS ([7]; pH 7.4): 18.14 mL/s/g; Log Po ([7]; pH 7.4): −0.74; Po ([7]; pH 7.4): 0.18 cm/s
CC(C)Cc1ccc(C(C)C(=O)O)cc1 (centres unmarked) [Ibuprofen]	0.11%			0.016	3.38 mL/g									
NC(=O)CI [Iodoacetamide]	100%	−0.19	−0.19	0.92	1.11 mL/g	−4.04	−4.04	−2.04	91.7 ×10⁻⁶ cm/s	91.7 ×10⁻⁶ cm/s	0.00917 mL/s/g	0.0092 mL/s/g	0.00917 mL/s/g	
CC(C)NC(C)Cc1ccc(I)cc1 (centres unmarked) [Iofetamine, isopropyl-iodoamphetamine]	3.07%	3.26	1.75	0.25		−2.54	−1.02	0.98	2910 ×10⁻⁶ cm/s	94900 ×10⁻⁶ cm/s	9.49 mL/s/g	0.29 mL/s/g	9.49 mL/s/g	half-life [8]: 3.16 min; Maximal flow—90% extraction, PcS/2.3 ([2]; pH 7.4): 0.13 mL/s/g; Peak flow rate for 90% E ([2]; pH 7.4): 7.6 mL/min/g; BBB PcS ([6]; protein-free saline, differing/elevated flow rates, best fit): 0.238 mL/s/g
O=C[C@@H](O)[C@H](O)[C@@H](O)[C@@H](O)CO [L-Glucose]	100%	−3.18	−3.18	1.00	0.13 mL/g	−6.90	−6.90	−4.90				1.25e-05 mL/s/g	1.25e-05 mL/s/g	Pc [7]: 0.125 ×10⁻⁶ cm/s; Po [7]: 1.25e-07 cm/s
CO [Methanol]	100%	−0.52	−0.52	1.00	1.06 mL/g	−3.56	−3.56	−1.56	278 ×10⁻⁶ cm/s	278 ×10⁻⁶ cm/s	0.0278 mL/s/g	0.028 mL/s/g	0.0278 mL/s/g	
CNC(N)=O [Methylurea]	100%	−1.40	−1.40	1.00	1.04 mL/g	−5.72	−5.72	−3.72	1.91 ×10⁻⁶ cm/s	1.91 ×10⁻⁶ cm/s	0.000191 mL/s/g	0.00019 mL/s/g	0.000191 mL/s/g	Brain Kin [2]: 0.000563 mL/s/g; Extraction (unbound) [2]: 0.79%; Brain vascular extraction (total) [2]: 0.79%
CCCCNS(=O)(=O)c1ccccc1 [N-butyl-benzene sulfonamide]	100%	2.20	2.20	0.30	10 mL/g	−2.42	−2.42	−0.42	3800 ×10⁻⁶ cm/s	3800 ×10⁻⁶ cm/s	0.38 mL/s/g	0.38 mL/s/g	0.38 mL/s/g	Maximal flow—90% extraction, PcS/2.3 ([2]; pH 7.4): 0.17 mL/s/g
CCC1(c2ccccc2)C(=O)NC(=O)NC1=O [Phenobarbital]	47.7%	1.53	1.51	0.25										half-life [8]: 7.39 min; Log Pc ([7]; pH 7.4): −4.19; Log PoS ([7]; pH 7.4): −1.86; Pc ([7]; pH 7.4): 65.1 ×10⁻⁶ cm/s; PcS ([7]; pH 7.4): 0.0065 mL/s/g; PoS ([7]; pH 7.4): 0.0136 mL/s/g; Log Po ([7]; pH 7.4): −3.86; Po ([7]; pH 7.4): 0.000136 cm/s
CC(=O)CC(c1ccccc1)c1c(O)c2ccccc2oc1=O (centres unmarked) [Warfarin]	0.01%			8.0E−03	3.03 mL/g									Log Pc ([7]; pH 7.4): −4.15; Log PoS ([7]; pH 7.4): 1.71; Pc ([7]; pH 7.4): 70.6 ×10⁻⁶ cm/s; PcS ([7]; pH 7.4): 0.0071 mL/s/g; PoS ([7]; pH 7.4): 51.2 mL/s/g; Log Po ([7]; pH 7.4): −0.29; Po ([7]; pH 7.4): 0.51 cm/s
Inulin	89.0%	−4.36	−4.13	1.00	0.02 mL/g	−8.12	−8.12	−6.12	0.0075 ×10⁻⁶ cm/s	0.0075 ×10⁻⁶ cm/s	7.5e-07 mL/s/g	7.5e-07 mL/s/g	7.5e-07 mL/s/g	
